# Measurements as given in ChEMBL document CHEMBL5715260, “Selectivity Literature for EUbOPEN Chemogenomic Library” (2024).
# How the values were obtained:
# [1] = target: T1, Alpha trans-inducing protein (Human alphaherpesvirus 1) (UniProt A0A5J6DW59); test: Selectivity interaction (Reporter gene assay) EUB0001477a UL48; design: recommended concentration 1 uM
# [2] = target: T2, Retinoic acid receptor RXR-alpha (Homo sapiens) (UniProt P19793); test: Selectivity interaction (Reporter gene assay) EUB0001477a RXRA; design: recommended concentration 1 uM; conditions: reference bexarotene 1 uM, Selectivity number of off-targets 0.0, Selectivity number of targets 1.0, Source Knowledge inhouse
# T2 sequence (whole entry): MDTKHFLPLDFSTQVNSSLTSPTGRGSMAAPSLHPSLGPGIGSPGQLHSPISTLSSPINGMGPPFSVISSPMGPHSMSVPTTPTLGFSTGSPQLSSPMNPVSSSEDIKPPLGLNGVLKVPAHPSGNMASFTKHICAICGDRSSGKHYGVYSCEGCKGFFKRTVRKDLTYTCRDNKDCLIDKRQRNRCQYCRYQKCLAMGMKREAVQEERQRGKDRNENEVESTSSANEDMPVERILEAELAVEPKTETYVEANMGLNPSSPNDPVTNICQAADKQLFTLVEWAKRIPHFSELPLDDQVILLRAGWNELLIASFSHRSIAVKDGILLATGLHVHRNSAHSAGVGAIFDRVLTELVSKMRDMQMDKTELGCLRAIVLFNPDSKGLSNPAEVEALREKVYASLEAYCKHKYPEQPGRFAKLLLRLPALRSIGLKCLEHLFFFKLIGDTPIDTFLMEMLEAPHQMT
# [3] = target: Steroidogenic factor 1 (Homo sapiens) (UniProt Q13285); test: Selectivity interaction (Reporter gene assay) EUB0001477a NR5A1; design: recommended concentration 1 uM
# Steroidogenic factor 1 (Homo sapiens), sequence (Q13285 whole entry): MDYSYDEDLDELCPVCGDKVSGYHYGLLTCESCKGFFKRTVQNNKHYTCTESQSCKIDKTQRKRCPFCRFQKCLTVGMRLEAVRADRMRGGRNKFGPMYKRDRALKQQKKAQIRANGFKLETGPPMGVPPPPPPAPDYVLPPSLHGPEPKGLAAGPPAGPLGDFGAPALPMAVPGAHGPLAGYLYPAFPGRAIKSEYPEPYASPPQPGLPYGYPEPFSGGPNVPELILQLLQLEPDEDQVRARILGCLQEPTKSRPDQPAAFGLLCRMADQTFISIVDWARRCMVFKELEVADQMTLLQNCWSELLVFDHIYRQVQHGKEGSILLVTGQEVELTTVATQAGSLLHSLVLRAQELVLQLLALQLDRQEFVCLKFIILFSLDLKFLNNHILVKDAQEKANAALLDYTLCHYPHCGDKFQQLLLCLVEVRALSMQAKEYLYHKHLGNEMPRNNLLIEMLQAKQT
# [4] = target: Nuclear receptor subfamily 2 group E member 1 (Homo sapiens) (UniProt Q9Y466); test: Selectivity interaction (Reporter gene assay) EUB0001477a NR2E1; design: recommended concentration 1 uM
# Nuclear receptor subfamily 2 group E member 1 (Homo sapiens), sequence (Q9Y466 whole entry): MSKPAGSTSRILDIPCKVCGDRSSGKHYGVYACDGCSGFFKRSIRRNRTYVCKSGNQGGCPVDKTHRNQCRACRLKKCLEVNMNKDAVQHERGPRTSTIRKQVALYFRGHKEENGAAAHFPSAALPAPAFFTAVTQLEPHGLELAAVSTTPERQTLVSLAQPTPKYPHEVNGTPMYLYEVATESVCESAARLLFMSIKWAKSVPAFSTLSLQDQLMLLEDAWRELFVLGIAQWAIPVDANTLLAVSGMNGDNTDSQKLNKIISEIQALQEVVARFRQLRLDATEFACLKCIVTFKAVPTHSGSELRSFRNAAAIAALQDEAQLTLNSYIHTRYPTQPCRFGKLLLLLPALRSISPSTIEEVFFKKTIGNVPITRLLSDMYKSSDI
# [5] = target: T3, Nuclear receptor subfamily 2 group C member 1 (Homo sapiens) (UniProt P13056); test: Selectivity interaction (Reporter gene assay) EUB0001477a NR2C1; design: recommended concentration 1 uM
# T3 sequence (whole entry): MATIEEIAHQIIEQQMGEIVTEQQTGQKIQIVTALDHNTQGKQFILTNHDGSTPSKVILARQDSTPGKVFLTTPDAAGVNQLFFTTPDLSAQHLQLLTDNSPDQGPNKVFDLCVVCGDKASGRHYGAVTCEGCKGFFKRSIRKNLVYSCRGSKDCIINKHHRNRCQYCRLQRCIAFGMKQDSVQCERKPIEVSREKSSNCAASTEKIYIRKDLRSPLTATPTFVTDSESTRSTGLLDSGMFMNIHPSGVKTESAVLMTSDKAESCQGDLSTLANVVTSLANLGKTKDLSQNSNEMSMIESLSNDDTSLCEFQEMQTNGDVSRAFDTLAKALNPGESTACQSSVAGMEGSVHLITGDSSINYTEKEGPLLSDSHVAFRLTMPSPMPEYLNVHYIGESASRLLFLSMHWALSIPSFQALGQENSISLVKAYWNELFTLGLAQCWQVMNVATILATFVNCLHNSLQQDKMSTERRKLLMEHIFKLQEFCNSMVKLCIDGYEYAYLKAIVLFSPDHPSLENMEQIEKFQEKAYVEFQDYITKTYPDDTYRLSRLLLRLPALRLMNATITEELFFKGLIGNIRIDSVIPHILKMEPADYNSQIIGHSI
# [6] = target: Nuclear receptor subfamily 4immunitygroup A member 1 (Homo sapiens) (UniProt P22736); test: Selectivity interaction (Reporter gene assay) EUB0001477a NR4A1; design: recommended concentration 1 uM
# Nuclear receptor subfamily 4immunitygroup A member 1 (Homo sapiens), sequence (P22736 whole entry): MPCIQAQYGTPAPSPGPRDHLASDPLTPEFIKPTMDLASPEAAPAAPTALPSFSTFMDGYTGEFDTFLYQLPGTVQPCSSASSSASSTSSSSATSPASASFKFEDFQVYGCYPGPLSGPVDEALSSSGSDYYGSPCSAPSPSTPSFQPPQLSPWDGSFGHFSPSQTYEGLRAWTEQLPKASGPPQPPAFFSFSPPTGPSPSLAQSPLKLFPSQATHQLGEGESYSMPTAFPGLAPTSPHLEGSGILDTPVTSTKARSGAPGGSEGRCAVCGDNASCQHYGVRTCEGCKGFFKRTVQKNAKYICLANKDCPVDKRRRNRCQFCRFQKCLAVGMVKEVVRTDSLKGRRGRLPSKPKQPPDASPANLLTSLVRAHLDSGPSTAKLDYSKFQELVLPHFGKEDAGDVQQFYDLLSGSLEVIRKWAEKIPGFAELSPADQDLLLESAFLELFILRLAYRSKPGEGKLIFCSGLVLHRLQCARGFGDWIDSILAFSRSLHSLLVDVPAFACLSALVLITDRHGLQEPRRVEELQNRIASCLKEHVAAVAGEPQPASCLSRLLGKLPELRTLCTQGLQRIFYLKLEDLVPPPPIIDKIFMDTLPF
# [7] = target: T4, Hepatocyte nuclear factor 4-alpha (Homo sapiens) (UniProt P41235); test: Selectivity interaction (Reporter gene assay) EUB0001477a HNF4A; design: recommended concentration 1 uM
# T4 sequence (whole entry): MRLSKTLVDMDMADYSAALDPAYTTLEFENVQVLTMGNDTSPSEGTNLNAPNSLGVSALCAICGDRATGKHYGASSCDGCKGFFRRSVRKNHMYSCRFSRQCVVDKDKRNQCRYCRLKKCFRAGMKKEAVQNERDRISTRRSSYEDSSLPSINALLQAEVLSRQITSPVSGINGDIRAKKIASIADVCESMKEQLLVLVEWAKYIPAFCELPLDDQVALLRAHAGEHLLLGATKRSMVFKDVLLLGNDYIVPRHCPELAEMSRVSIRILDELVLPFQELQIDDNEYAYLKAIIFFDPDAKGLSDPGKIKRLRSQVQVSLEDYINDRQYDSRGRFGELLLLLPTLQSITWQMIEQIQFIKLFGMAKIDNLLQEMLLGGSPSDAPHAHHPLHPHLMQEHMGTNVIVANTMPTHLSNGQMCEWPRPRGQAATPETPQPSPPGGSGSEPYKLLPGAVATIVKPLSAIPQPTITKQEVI
# [8] = target: T4, Hepatocyte nuclear factor 4-alpha (Homo sapiens); test: Selectivity interaction (Reporter gene assay) EUB0001174a HNF4A; design: recommended concentration 1 uM
# [9] = target: Steroidogenic factor 1 (Homo sapiens) (UniProt Q13285); test: Selectivity interaction (Reporter gene assay) EUB0001174a NR5A1; design: recommended concentration 1 uM
# [10] = target: T3, Nuclear receptor subfamily 2 group C member 1 (Homo sapiens); test: Selectivity interaction (Reporter gene assay) EUB0001174a NR2C1; design: recommended concentration 1 uM
# [11] = target: Nuclear receptor subfamily 4immunitygroup A member 1 (Homo sapiens) (UniProt P22736); test: Selectivity interaction (Reporter gene assay) EUB0001174a NR4A1; design: recommended concentration 1 uM
# [12] = target: T1, Alpha trans-inducing protein (Human alphaherpesvirus 1); test: Selectivity interaction (Reporter gene assay) EUB0001174a UL48; design: recommended concentration 1 uM
# [13] = target: Oxysterols receptor LXR-alpha (Homo sapiens) (UniProt Q13133); test: Selectivity interaction (Reporter gene assay) EUB0001174a NR1H3; design: recommended concentration 1 uM; conditions: screened at recom. conc., Selectivity number of off-targets 1.0, Selectivity number of targets 19.0, Source Knowledge inhouse
# Oxysterols receptor LXR-alpha (Homo sapiens), sequence (Q13133 whole entry): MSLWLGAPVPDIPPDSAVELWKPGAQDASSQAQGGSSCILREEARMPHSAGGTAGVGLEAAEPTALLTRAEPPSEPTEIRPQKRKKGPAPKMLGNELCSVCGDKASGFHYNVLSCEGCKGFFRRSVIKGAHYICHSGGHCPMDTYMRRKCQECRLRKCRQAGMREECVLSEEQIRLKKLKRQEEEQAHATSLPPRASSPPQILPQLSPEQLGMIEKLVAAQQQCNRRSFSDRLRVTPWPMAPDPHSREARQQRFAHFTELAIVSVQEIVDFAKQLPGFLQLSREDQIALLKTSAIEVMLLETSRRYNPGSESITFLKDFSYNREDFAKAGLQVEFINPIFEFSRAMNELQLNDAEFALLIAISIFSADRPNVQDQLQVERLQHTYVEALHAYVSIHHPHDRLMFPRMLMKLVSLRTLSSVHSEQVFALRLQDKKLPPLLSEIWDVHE
# [14] = target: T5, Oxysterols receptor LXR-beta (Homo sapiens) (UniProt P55055); test: Selectivity interaction (Reporter gene assay) EUB0001174a NR1H2; design: recommended concentration 1 uM; conditions: screened at recom. conc., Selectivity number of off-targets 1.0, Selectivity number of targets 19.0, Source Knowledge inhouse
# T5 sequence (whole entry): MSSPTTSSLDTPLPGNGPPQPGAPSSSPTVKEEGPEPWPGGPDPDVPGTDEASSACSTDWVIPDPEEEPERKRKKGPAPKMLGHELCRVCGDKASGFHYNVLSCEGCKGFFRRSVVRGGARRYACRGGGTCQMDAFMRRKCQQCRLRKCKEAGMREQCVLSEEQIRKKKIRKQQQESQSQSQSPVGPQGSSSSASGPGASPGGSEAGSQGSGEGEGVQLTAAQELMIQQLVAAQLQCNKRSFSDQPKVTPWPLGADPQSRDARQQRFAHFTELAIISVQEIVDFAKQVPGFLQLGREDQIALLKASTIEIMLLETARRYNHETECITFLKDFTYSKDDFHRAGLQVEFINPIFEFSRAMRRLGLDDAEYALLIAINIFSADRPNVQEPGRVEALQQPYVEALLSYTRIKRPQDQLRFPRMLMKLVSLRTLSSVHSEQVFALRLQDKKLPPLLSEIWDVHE
# [15] = target: T2, Retinoic acid receptor RXR-alpha (Homo sapiens); test: Selectivity interaction (Reporter gene assay) EUB0001174a RXRA; design: recommended concentration 1 uM; conditions: reference bexarotene 1 uM, Selectivity number of off-targets 0.0, Selectivity number of targets 1.0, Source Knowledge inhouse
# [16] = target: Nuclear receptor subfamily 2 group E member 1 (Homo sapiens) (UniProt Q9Y466); test: Selectivity interaction (Reporter gene assay) EUB0001174a NR2E1; design: recommended concentration 1 uM; conditions: screened at recom. conc., Selectivity number of off-targets 1.0, Selectivity number of targets 5.0, Source Knowledge inhouse
# [17] = target: Steroidogenic factor 1 (Homo sapiens) (UniProt Q13285); test: Selectivity interaction (Reporter gene assay) EUB0001170a NR5A1; design: recommended concentration 1 uM
# [18] = target: T3, Nuclear receptor subfamily 2 group C member 1 (Homo sapiens); test: Selectivity interaction (Reporter gene assay) EUB0001170a NR2C1; design: recommended concentration 1 uM
# [19] = target: T2, Retinoic acid receptor RXR-alpha (Homo sapiens); test: Selectivity interaction (Reporter gene assay) EUB0001170a RXRA; design: recommended concentration 1 uM; conditions: reference bexarotene 1 uM, Selectivity number of off-targets 0.0, Selectivity number of targets 1.0, Source Knowledge inhouse
# [20] = target: T1, Alpha trans-inducing protein (Human alphaherpesvirus 1); test: Selectivity interaction (Reporter gene assay) EUB0001170a UL48; design: recommended concentration 1 uM
# [21] = target: Nuclear receptor subfamily 4immunitygroup A member 1 (Homo sapiens) (UniProt P22736); test: Selectivity interaction (Reporter gene assay) EUB0001170a NR4A1; design: recommended concentration 1 uM
# [22] = target: T4, Hepatocyte nuclear factor 4-alpha (Homo sapiens); test: Selectivity interaction (Reporter gene assay) EUB0001170a HNF4A; design: recommended concentration 1 uM
# [23] = target: Nuclear receptor subfamily 2 group E member 1 (Homo sapiens) (UniProt Q9Y466); test: Selectivity interaction (Reporter gene assay) EUB0001170a NR2E1; design: recommended concentration 1 uM
# [24] = target: T1, Alpha trans-inducing protein (Human alphaherpesvirus 1); test: Selectivity interaction (Reporter gene assay) EUB0001172a UL48; design: recommended concentration 1 uM
# [25] = target: T1, Alpha trans-inducing protein (Human alphaherpesvirus 1); test: Selectivity interaction (Reporter gene assay) EUB0001483aCl UL48; design: recommended concentration 10 uM
# [26] = target: T2, Retinoic acid receptor RXR-alpha (Homo sapiens); test: Selectivity interaction (Reporter gene assay) EUB0001483aCl RXRA; design: recommended concentration 10 uM; conditions: reference bexarotene 1 uM, Selectivity number of off-targets 0.0, Selectivity number of targets 1.0, Source Knowledge inhouse
# [27] = target: T4, Hepatocyte nuclear factor 4-alpha (Homo sapiens); test: Selectivity interaction (Reporter gene assay) EUB0001483aCl HNF4A; design: recommended concentration 10 uM
# [28] = target: Nuclear receptor subfamily 4immunitygroup A member 1 (Homo sapiens) (UniProt P22736); test: Selectivity interaction (Reporter gene assay) EUB0001483aCl NR4A1; design: recommended concentration 10 uM
# [29] = target: Nuclear receptor subfamily 2 group E member 1 (Homo sapiens) (UniProt Q9Y466); test: Selectivity interaction (Reporter gene assay) EUB0001483aCl NR2E1; design: recommended concentration 10 uM
# [30] = target: T3, Nuclear receptor subfamily 2 group C member 1 (Homo sapiens); test: Selectivity interaction (Reporter gene assay) EUB0001483aCl NR2C1; design: recommended concentration 10 uM
# [31] = target: Steroidogenic factor 1 (Homo sapiens) (UniProt Q13285); test: Selectivity interaction (Reporter gene assay) EUB0001483aCl NR5A1; design: recommended concentration 10 uM
# T1 sequence (A0A5J6DW59 as listed by the source): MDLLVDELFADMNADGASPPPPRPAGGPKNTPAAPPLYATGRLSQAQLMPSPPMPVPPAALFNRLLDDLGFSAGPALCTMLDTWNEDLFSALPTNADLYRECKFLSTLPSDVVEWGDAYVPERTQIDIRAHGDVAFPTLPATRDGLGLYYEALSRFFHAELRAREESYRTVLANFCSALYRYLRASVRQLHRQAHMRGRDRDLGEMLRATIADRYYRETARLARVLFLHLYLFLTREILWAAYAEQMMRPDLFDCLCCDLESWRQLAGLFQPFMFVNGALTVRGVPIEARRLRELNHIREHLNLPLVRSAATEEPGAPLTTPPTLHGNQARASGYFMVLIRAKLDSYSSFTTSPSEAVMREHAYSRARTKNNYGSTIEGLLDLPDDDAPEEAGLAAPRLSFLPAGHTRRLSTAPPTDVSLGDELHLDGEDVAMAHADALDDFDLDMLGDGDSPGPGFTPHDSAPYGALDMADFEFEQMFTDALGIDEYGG
compound,measurement,setting,value
Clc1ccc(-c2nc3sccn3c2/C=N/OCc2ccc(Cl)c(Cl)c2)cc1,P-value,[1],0.000158
same,Relative activation,[2],0.637%
same,Fold activation,[3],1.19
same,Remaining activity,[4],0.989
same,Fold activation,[5],1.23
same,Remaining activity,[6],0.934
same,Fold activation,[7],1.11
COc1cccc(Cn2cc(C(=O)Nc3ccc(C)c(S(=O)(=O)N4CCOCC4)c3)c(-c3ccc(C)cc3)n2)c1,Fold activation,[8],1.1
same,Remaining activity,[9],0.982
same,Remaining activity,[10],0.543
same,Remaining activity,[11],0.847
same,P-value,[12],1.23e-07
same,Remaining activity,[13],0.724
same,Remaining activity,[14],0.617
same,Relative activation,[15],0.49%
same,Remaining activity,[16],0.432
CC(C)C(=O)N1CCC(c2cn(C)c3ncc(NC(=O)c4cccc(C#N)c4)c(C(F)(F)F)c23)CC1,Fold activation,[17],1.12
same,Remaining activity,[18],0.916
same,Relative activation,[19],0.336%
same,P-value,[20],0.00111
same,Fold activation,[21],1.14
same,Fold activation,[22],1.08
same,Remaining activity,[23],0.839
CC(C)(C[C@H]1CN(S(=O)(=O)c2cccc(C(F)(F)F)c2)c2cc(-c3cc(F)cc(OC(F)F)c3)ccc2O1)C(=O)O,P-value,[24],4.9e-12
CN1CCN(c2ccc(/C=C(\C#N)c3ccccc3Br)cc2)CC1,P-value,[25],7.2e-05
same,Relative activation,[26],1.47%
same,Fold activation,[27],1.03
same,Fold activation,[28],1.35
same,Fold activation,[29],1.32
same,Fold activation,[30],1.32
same,Fold activation,[31],1.5
